For the test, the target named is T1, hGLP1 receptor (Homo sapiens, UniProt P43220).
T1 construct: expressed in transfected cells; host or cells: HEK (human embryonic kidney) cells co-expressing hGLP1 receptor and CRE-Luciferase
In words: GLP-1 receptor agonism assay (HTRF cAMP, HEK cells co-expressing hGLP1 receptor and CRE-Luciferase). The class given is cell-based. The settings on record: for Emax: HEK293, Table 6 potency profile; for EC50: 0% HSA; for decreased potency by Ala substitution in RXL-3000: Ala-scanning, versus RXL-3000; for decreased potency (Aib/Ala comparison): versus respective parent analog. The protocol: Human embryonic kidney cells (HEK) co-expressing the hGLP1 receptor and CRE-Luciferase construct were used to determine agonist potency in this assay. The cells were thawed briefly at 37 °C, transferred to a sterile tube, and re-suspended in complete media at 37 °C. Cells were centrifuged at 1000 rpm for 5 min and collected; the cells were then re-suspended in an assay buffer consisting of Dulbecco’s phosphate-buffered saline (DPBS, GIBCO) with 500 μM of the phosphodiesterase inhibitor 3-isobutyl-1-methylxanthine (IBMX). The assay medium had 0% serum albumin, as specified in Table 1, Table 2, Table 3 and Table 4. The optimal cell density was determined to be 1000 cells/well. Cells were added to wells in 384-well plates containing appropriate pre-prepared dilutions of compounds (test peptides or reference compound exendin-4), sealed, and incubated with CO2 for 30 min. Test peptide solutions were diluted from 10 mM stock solutions to be used in two separate runs (performed in triplicate) from a maximal concentration of 1.0 μM, with 11 concentrations tested for each peptide using serial 1:3 dilution from this maximal concentration. […] The agonist assay was a homogeneous time-resolved fluorescence (HTRF) assay (Cisbio). Following incubation of the cells for 30 min with test or reference peptides, 5 μL of the cAMP acceptor cAMP-d2, prepared previously as a working solution from frozen stock (1:20 dilution), was added to each well of the assay plate along with 5 μL of anti-cAMP antibody-cryptate working solution (diluted 1:20 from frozen stock). The wells were incubated for 1 h at room temperature, and fluorescence was then read at 665 and 615 nm with an Envision reader with a TRF laser. Data were saved and analyzed using Prism software (GraphPad). Concentration–response analysis was performed using 4-parameter logistic fits of the resulting data, and EC50 values were obtained for each test and reference compound.

The mark [1] stands for this setting: Table 1, Phe6 modifications, average of two independent experiments in triplicate (RXL-3039 tested once), read-out: cAMP EC50.
[2] abbreviates: Table 2, Ala-scanning, >1000 nM = out of range, read-out: cAMP EC50.
Setting [3] is: Table 3, Aib-scanning, >1000 nM = out of range, read-out: cAMP EC50.
Where [4] appears, read: Table 4, Ala-scan peptides, read-out: pEC50 (converted).

Read-outs that look alike come from different tables or passages of the source. Square brackets hold non-standard residues; d marks the D form. Peptide text beside a SMILES is read from it. Bip = N[C@@H](Cc1ccc(-c2ccccc2)cc1)C(=O)O; αMePhe(2-F) = C[C@](N)(Cc1ccccc1F)C(=O)O; Phe(2-F) = N[C@@H](Cc1ccccc1F)C(=O)O; Aib = CC(C)(N)C(=O)O

T1 sequence (P43220 24-463): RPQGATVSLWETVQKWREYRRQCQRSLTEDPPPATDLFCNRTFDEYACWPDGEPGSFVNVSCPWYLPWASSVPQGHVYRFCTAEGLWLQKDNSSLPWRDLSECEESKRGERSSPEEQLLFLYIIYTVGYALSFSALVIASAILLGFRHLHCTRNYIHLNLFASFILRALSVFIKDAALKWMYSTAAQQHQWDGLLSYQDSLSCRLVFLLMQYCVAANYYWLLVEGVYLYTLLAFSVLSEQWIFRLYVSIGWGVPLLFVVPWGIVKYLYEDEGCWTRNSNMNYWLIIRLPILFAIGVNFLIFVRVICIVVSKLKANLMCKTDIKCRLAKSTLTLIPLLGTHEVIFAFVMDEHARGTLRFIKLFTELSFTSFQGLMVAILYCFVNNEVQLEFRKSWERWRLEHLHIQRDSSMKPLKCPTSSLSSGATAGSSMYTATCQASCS

The compound `C[C@@H](O)[C@H](NC(=O)CNC(=O)[C@H](CCC(=O)O)NC(=O)C(C)(C)NC(=O)[C@@H](N)Cc1c[nH]cn1)C(=O)N[C@@H](Cc1ccccc1)C(=O)N[C@H](C(=O)N[C@@H](CO)C(=O)N[C@@H](CC(=O)O)C(=O)N[C@@H](Cc1ccc(-c2ccccc2)cc1)C(=O)N[C@@H](Cc1ccc(-c2ccccc2)cc1)C(N)=O)[C@@H](C)O` [RXL-100, His-Aib-Glu-Gly-Thr-Phe-Thr-Ser-Asp-Bip-Bip-NH2] gave an Emax of 110%. Also, the EC50 under setting [1] amounted to 0.5 nM. Besides, under setting [2], the EC50 turned out to be 0.5 nM. Further, the EC50 under setting [3] is 0.5 nM.
Compound `C[C@@H](O)[C@H](NC(=O)CNC(=O)[C@H](CCC(=O)O)NC(=O)C(C)(C)NC(=O)[C@@H](N)Cc1c[nH]cn1)C(=O)N[C@@](C)(Cc1ccccc1F)C(=O)N[C@H](C(=O)N[C@@H](CO)C(=O)N[C@@H](CC(=O)O)C(=O)N[C@@H](Cc1ccc(-c2ccccc2)cc1)C(=O)N[C@@H](Cc1ccc(-c2ccccc2)cc1)C(N)=O)[C@@H](C)O` [RXL-101, His-Aib-Glu-Gly-Thr-α-Me-Phe(2-F)-Thr-Ser-Asp-Bip-Bip-NH2] (H-H[Aib]EGT[αMePhe(2-F)]TSD[Bip][Bip]-NH2) had an Emax of 117%. Where the note is “pEC50 of RXL-101 minus pEC50 of RXL-3000”, the “Cα-methylation pEC50 contribution for position 6” value stood at 0.97.
In turn, `C[C@@H](O)[C@H](NC(=O)CNC(=O)[C@H](CCC(=O)O)NC(=O)C(C)(C)NC(=O)[C@@H](N)Cc1c[nH]cn1)C(=O)N[C@@H](Cc1ccccc1F)C(=O)N[C@H](C(=O)N[C@@H](CO)C(=O)N[C@@H](CC(=O)O)C(=O)N[C@@H](Cc1ccc(-c2ccccc2)cc1)C(=O)N[C@@H](Cc1ccc(-c2ccccc2)cc1)C(N)=O)[C@@H](C)O` [RXL-3000, His-Aib-Glu-Gly-Thr-Phe(2-F)-Thr-Ser-Asp-Bip-Bip-NH2] showed an Emax of 109%. Moreover, the EC50 under setting [1] was 0.1 nM. For the same compound, under setting [2], the EC50 worked out at 0.1 nM. Also, the EC50 under setting [3] amounted to 0.1 nM. Under “versus RXL-100”, the “GLP-1R agonist potency greater versus the parent peptide RXL-100” value was “approximately fivefold”.
Compound `C[C@H](N)C(=O)NC(C)(C)C(=O)N[C@@H](CCC(=O)O)C(=O)NCC(=O)N[C@H](C(=O)N[C@@H](Cc1ccccc1F)C(=O)N[C@H](C(=O)N[C@@H](CO)C(=O)N[C@@H](CC(=O)O)C(=O)N[C@@H](Cc1ccc(-c2ccccc2)cc1)C(=O)N[C@@H](Cc1ccc(-c2ccccc2)cc1)C(N)=O)[C@@H](C)O)[C@@H](C)O` [RXL-3001, Ala-Aib-Glu-Gly-Thr-Phe(2-F)-Thr-Ser-Asp-Bip-Bip-NH2] registered an Emax of 108%. In addition, the EC50 under setting [2] stood at 21.9 nM.
In the same order, the values of `C[C@H](NC(=O)[C@@H](N)Cc1c[nH]cn1)C(=O)N[C@@H](CCC(=O)O)C(=O)NCC(=O)N[C@H](C(=O)N[C@@H](Cc1ccccc1F)C(=O)N[C@H](C(=O)N[C@@H](CO)C(=O)N[C@@H](CC(=O)O)C(=O)N[C@@H](Cc1ccc(-c2ccccc2)cc1)C(=O)N[C@@H](Cc1ccc(-c2ccccc2)cc1)C(N)=O)[C@@H](C)O)[C@@H](C)O` [RXL-3002, His-Ala-Glu-Gly-Thr-Phe(2-F)-Thr-Ser-Asp-Bip-Bip-NH2] are 102% and 0.2 nM.
With `C[C@H](NC(=O)C(C)(C)NC(=O)[C@@H](N)Cc1c[nH]cn1)C(=O)NCC(=O)N[C@H](C(=O)N[C@@H](Cc1ccccc1F)C(=O)N[C@H](C(=O)N[C@@H](CO)C(=O)N[C@@H](CC(=O)O)C(=O)N[C@@H](Cc1ccc(-c2ccccc2)cc1)C(=O)N[C@@H](Cc1ccc(-c2ccccc2)cc1)C(N)=O)[C@@H](C)O)[C@@H](C)O` [RXL-3003, His-Aib-Ala-Gly-Thr-Phe(2-F)-Thr-Ser-Asp-Bip-Bip-NH2], the Emax came to 108%. For the same compound, the EC50 under setting [2] stood at 7.9 nM.
`C[C@H](NC(=O)CNC(=O)[C@H](CCC(=O)O)NC(=O)C(C)(C)NC(=O)[C@@H](N)Cc1c[nH]cn1)C(=O)N[C@@H](Cc1ccccc1F)C(=O)N[C@H](C(=O)N[C@@H](CO)C(=O)N[C@@H](CC(=O)O)C(=O)N[C@@H](Cc1ccc(-c2ccccc2)cc1)C(=O)N[C@@H](Cc1ccc(-c2ccccc2)cc1)C(N)=O)[C@@H](C)O` [RXL-3004, His-Aib-Glu-Gly-Ala-Phe(2-F)-Thr-Ser-Asp-Bip-Bip-NH2] (H-H[Aib]EGA[Phe(2-F)]TSD[Bip][Bip]-NH2) returned an Emax of 108%. Further, the EC50 under setting [2] came to 7.7 nM. Besides, the EC50 under setting [4] was 6.92 nM.
As for `C[C@H](NC(=O)[C@H](Cc1ccccc1F)NC(=O)[C@@H](NC(=O)CNC(=O)[C@H](CCC(=O)O)NC(=O)C(C)(C)NC(=O)[C@@H](N)Cc1c[nH]cn1)[C@@H](C)O)C(=O)N[C@@H](CO)C(=O)N[C@@H](CC(=O)O)C(=O)N[C@@H](Cc1ccc(-c2ccccc2)cc1)C(=O)N[C@@H](Cc1ccc(-c2ccccc2)cc1)C(N)=O` [RXL-3005, His-Aib-Glu-Gly-Thr-Phe(2-F)-Ala-Ser-Asp-Bip-Bip-NH2] (H-H[Aib]EGT[Phe(2-F)]ASD[Bip][Bip]-NH2), the Emax amounted to 102%. Besides, under setting [2], the EC50 stood at 47.5 nM. Also, the EC50 under setting [4] was 21.4 nM.
For `C[C@H](NC(=O)[C@@H](NC(=O)[C@H](Cc1ccccc1F)NC(=O)[C@@H](NC(=O)CNC(=O)[C@H](CCC(=O)O)NC(=O)C(C)(C)NC(=O)[C@@H](N)Cc1c[nH]cn1)[C@@H](C)O)[C@@H](C)O)C(=O)N[C@@H](CC(=O)O)C(=O)N[C@@H](Cc1ccc(-c2ccccc2)cc1)C(=O)N[C@@H](Cc1ccc(-c2ccccc2)cc1)C(N)=O` [RXL-3006, His-Aib-Glu-Gly-Thr-Phe(2-F)-Thr-Ala-Asp-Bip-Bip-NH2] (H-H[Aib]EGT[Phe(2-F)]TAD[Bip][Bip]-NH2), in that order: 120%, 8.5 nM and 1.91 nM.
In the same order, the values of `C[C@H](NC(=O)[C@H](CO)NC(=O)[C@@H](NC(=O)[C@H](Cc1ccccc1F)NC(=O)[C@@H](NC(=O)CNC(=O)[C@H](CCC(=O)O)NC(=O)C(C)(C)NC(=O)[C@@H](N)Cc1c[nH]cn1)[C@@H](C)O)[C@@H](C)O)C(=O)N[C@@H](Cc1ccc(-c2ccccc2)cc1)C(=O)N[C@@H](Cc1ccc(-c2ccccc2)cc1)C(N)=O` [RXL-3007, His-Aib-Glu-Gly-Thr-Phe(2-F)-Thr-Ser-Ala-Bip-Bip-NH2] (H-H[Aib]EGT[Phe(2-F)]TSA[Bip][Bip]-NH2) are 132%, 14 nM and 4.79 nM.
In the case of `C[C@H](NC(=O)[C@H](CC(=O)O)NC(=O)[C@H](CO)NC(=O)[C@@H](NC(=O)[C@H](Cc1ccccc1F)NC(=O)[C@@H](NC(=O)CNC(=O)[C@H](CCC(=O)O)NC(=O)C(C)(C)NC(=O)[C@@H](N)Cc1c[nH]cn1)[C@@H](C)O)[C@@H](C)O)C(=O)N[C@@H](Cc1ccc(-c2ccccc2)cc1)C(N)=O` [RXL-3008, His-Aib-Glu-Gly-Thr-Phe(2-F)-Thr-Ser-Asp-Ala-Bip-NH2] (H-H[Aib]EGT[Phe(2-F)]TSDA[Bip]-NH2), the “decreased potency by Ala substitution in RXL-3000” value is reported as more than 1000 fold, the maximal response (Emax) worked out at 43.6% and the “decreased potency (Aib/Ala comparison)” value is listed as > 10,000 fold. In addition, the EC50 under setting [2] is more than 1000 nM.
For `C[C@H](NC(=O)[C@H](Cc1ccc(-c2ccccc2)cc1)NC(=O)[C@H](CC(=O)O)NC(=O)[C@H](CO)NC(=O)[C@@H](NC(=O)[C@H](Cc1ccccc1F)NC(=O)[C@@H](NC(=O)CNC(=O)[C@H](CCC(=O)O)NC(=O)C(C)(C)NC(=O)[C@@H](N)Cc1c[nH]cn1)[C@@H](C)O)[C@@H](C)O)C(N)=O` [RXL-3009, His-Aib-Glu-Gly-Thr-Phe(2-F)-Thr-Ser-Asp-Bip-Ala-NH2], in that order: more than 1000 fold, 43.2%, 10,000 fold and more than 1000 nM.
Consider `C[C@@H](O)[C@H](NC(=O)CNC(=O)[C@H](CCC(=O)O)NC(=O)C(C)(C)NC(=O)[C@@H](N)Cc1c[nH]cn1)C(=O)N[C@@H](Cc1ccccc1Br)C(=O)N[C@H](C(=O)N[C@@H](CO)C(=O)N[C@@H](CC(=O)O)C(=O)N[C@@H](Cc1ccc(-c2ccccc2)cc1)C(=O)N[C@@H](Cc1ccc(-c2ccccc2)cc1)C(N)=O)[C@@H](C)O` [RXL-3010, His-Aib-Glu-Gly-Thr-Phe(2-Br)-Thr-Ser-Asp-Bip-Bip-NH2], for which the Emax came to 121%. Besides, the EC50 under setting [1] turned out to be 3.85 nM.
For `C[C@@H](O)[C@H](NC(=O)CNC(=O)[C@H](CCC(=O)O)NC(=O)C(C)(C)NC(=O)[C@@H](N)Cc1c[nH]cn1)C(=O)N[C@@H](Cc1ccccc1Cl)C(=O)N[C@H](C(=O)N[C@@H](CO)C(=O)N[C@@H](CC(=O)O)C(=O)N[C@@H](Cc1ccc(-c2ccccc2)cc1)C(=O)N[C@@H](Cc1ccc(-c2ccccc2)cc1)C(N)=O)[C@@H](C)O` [RXL-3011, His-Aib-Glu-Gly-Thr-Phe(2-Cl)-Thr-Ser-Asp-Bip-Bip-NH2], in that order: 91.3% and 0.9 nM.

For the origin of these results see article PMC11721672, “Design, Structure–Activity Relationships, and Computational Modeling Studies of a Series of α-Helix Biased, Ultra-Short Glucagon-like Peptide-1 Receptor Agonists” (Molecules, 2024).
